Laboratory results as given in patent publication US20050142067A1, “Zintrodes, multitrodes and uses thereof” (priority 2003, published 2005).
“Also recorded” adds a separate entry of the source. Read-outs that look alike come from different tables or passages of the source.

Legend:
[1] = target: holoCA (Homo sapiens, UniProt P00918); assay: Binding of fluorescent reporter to holoCA; conditions: order of magnitude in words
Description: The measurement is based on a literature method (44, 51). Aliquots of a 1 μM solution of the CA protein are mixed with several concentrations of DPSA, ranging from 1 nM to 10 μM. After 30 minutes of incubation, the fluorescence emission spectrum is measured with excitation at 365 nm and emission at 400-700 nm. Taking the intensity at 560 nm, which is the emission max of an apoCA-DPSA conjugate, at the highest concentration aliquot to represent 99% fractional saturation, and 1% at the lowest concentration aliquot, the fractional saturation is plotted as a function of the DPSA concentration on a logarithmic scale, and the data is fit to a single binding isotherm, e.g. fraction bound=KD/(1+KD) using Kaleidagraph (Synergy Software), or a similar program.
Because of the nature of the sulfonamide binding as a fourth ligand to the active site, DPSA binds as a 1:1 complex at realistic aliquot concentrations. If the fractional saturation is not near 1.0 at higher DPSA concentration because the DPSA binds more weakly to the variant, the curvature of the isotherm will not reach the peak intensity.

[2] = target: CA-Zn (holoCA) (Homo sapiens, UniProt P00918); assay: Screening of fluorescent reporters with CA and zinc (fluorescence intensity)
Description: (§1) Stock solutions of the fluorescent reporter were prepared in alcohol and diluted 1000-fold in the final measuring cuvette. Carbonic anhydrase protein (CA) was “apo-ized” as per a standard procedure (50). Zinc was added to a solution of the CA in the presence of the reporter and the change in fluorescence intensity and wavelength of the reporter were measured on a Spex DM-1B fluorescence spectrophotometer using He—Cd laser excitation.

[3] = Spectral characteristics of reporters for CA-based zinc biosensor; type: physicochemical
Description: as §1

[4] = Leakage of reporter through microdialysis membrane; type: physicochemical; conditions: microdialysis chamber (sock), HEPES external medium
Description: A solution of DPSA was placed in the “sock” and the fluorescence of DPSA inside the dialysis chamber and in the external HEPES buffer solution was measured (FIG. 4A). The chamber was then filled with 10 μM apoCA and the external solution with […] HEPES buffer and 10 μM free zinc (FIG. 4B). Since the microdialysis membrane is impermeable to apoCA, any zinc that passes through the membrane is then trapped inside upon binding to apoCA. […] For example, if free zinc in the biological medium is 2 nM, then 0.90 nM zinc will be trapped within the “sock.”
However, DNSA “leaks out” of the membrane. DNSA reporter was covalently bound to amino-CPG beads using a 12 C or a 14 C tether and placed into the microdialysis membrane or “sock”. […] The DNSA-CPG bead system comprises a “molecular tether” means of entrapment (FIG. 7).

[5] = Fluorescence response to zinc of dye in micropolymer spots on glass slides; conditions: dye in polymer on glass slide, HEPES pH ˜7.4, 500 μM Zn^2+
Description: A proprietary micropolymer was obtained from Gary Kiefer of DOW. Two fluorescence sensors were mixed individually with the micropolymer. One was TFLZN which has a Kd of 10 μM for binding zinc and which is strongly hydrophilic. The other was ZP1, which is more lipophilic, binds zinc with a Kd of 0.5 nM, and is very bright with a quantum yield of 0.9. After mixing, the two solutions were spotted onto acid-cleaned glass slides in spots of 2.5 and 10.0 μL and allowed to cure overnight.
To evaluate the coatings, one microliter of HEPES (50 mM, pH ˜7.4) was put onto one spot on the polymer/probe coatings and a second spot with one microliter of the same HEPES plus 1 microliter of ZnSO4 (final [Zn^2+], 500 μM) was put next to the first spot. Images of the both spots were captured using the exact same camera settings for both spots. […] When the actual fluorescent intensity of the spots was measured using Photoshop, it was observed that the zinc-added spot was from 4-5-fold brighter that the HEPES spot. […] The change in fluorescence was not timed, but in this microscope-measuring system, the change appeared essentially instantaneously, i.e., within the few seconds it took to put the slide back in place, re-focus the microscope, and capture the second image. […] Furthermore, washing the spots with pure HEPES again lowered the fluorescence back to essentially the pre-zinc levels. […]

[6] = read-out: Kd for binding zinc; cited from earlier work
[7] = pZn meter calibration with metal buffer (ZP1); type: binding; conditions: 50 μM bicine metal buffer, [ZP1]=100 nM; read-out: KD, fluorescence intensity midpoint
Description: In calibrating the pZn meter using a metal buffer to control free zinc (FIG. 16A), the [ZP1] is <<than the effective [Zn2+ free] because the metal buffer, 50 μM bicine, can supply a large total number of Zn ions, while keeping the concentration of zinc ions fixed. Thus, in this calibration, the fluorescence intensity midpoint is approximately equal to the KD, 0.5 nM where [ZP1]=100 nM. In a second calibration, a ZP1 concentration of 20 nM of zinc, as ZnSO4, is used (FIG. 16B). Because no metal buffer is used and because the ZP1 concentration is much higher than the zinc concentration, this is a stoichiometric or “percent occupancy” titiration in which the fluorescence intensity is simply proportional to the molar ratio, [Zn]:[ZP1}.

[8] = cited from earlier work
[9] = system: rabbit brain; conditions: 1 mM in dialysis fluid, 10 minutes infusion, anesthetized rabbits, dorsal hippocampus
Description: The microdialysis probes were aimed at the dorsal hippocampus in two acutely prepared rabbits, as described above, and the rabbits were anesthetized with isofluorane.
This caused spermine NONOate to release NO*, some of which presumably passed through the dialysis membrane and into the brain as a reverse dialysis procedure. The infusion lasted 10 minutes.

SMILES	binding to holoCA [1]	increase of fluorescent yield upon binding to holo-CA [2] [fold]	Abs max [3] [nm]	Emm max [3] [nm]	Molar ε [3]	leakage out of microdialysis membrane [4]	fluorescence of zinc-added spot versus HEPES spot [5]	Kd [6] [nM]	quantum yield ([8]; after zinc binding)	quantum yield ([8]; before zinc binding)	other results
CN(C)c1cccc2c(S(N)(=O)=O)cccc12 [DNSA, dansylamide]	low micromole	6	332	560	4.7 × 10^3 cm^−1M^−1	leaks out	–	–	–	–	–
CN(C)c1ccc(-c2cnc(-c3ccc(S(N)(=O)=O)cc3)o2)cc1 [DPSA, dapoxylsulfonamide]	low picomole	20	355	605	2.2 × 10^4 cm^−1M^−1	membrane impermeable; also recorded: does not leak out	–	–	–	–	fluorescence intensity ([2]; 1 μM DPSA, alone or with the named CA): 70 units; absorption λmax [3]: 340 nm
COc1cc(NS(=O)(=O)c2ccc(C(=O)O)cc2)c2nc(C)ccc2c1 [TFLZN]	–	–	–	–	–	–	~15 fold	10000	–	–	–
O=C(O)c1ccccc1-c1c2cc(Cl)c(=O)c(CN(Cc3ccccn3)Cc3ccccn3)c-2oc2c(CN(Cc3ccccn3)Cc3ccccn3)c(O)c(Cl)cc12 [ZP1, 9-(o-carboxyphenyl)-2,7-dichloro-4,5-bis[bis(2-pyridylmethyl)-aminomethyl]-6-hydroxy-3-xanthanone]	–	–	–	–	–	–	4-5 fold	0.5	about 0.87	about 0.39	Kd [7]: ~0.5 nM; quantum yield ([8]; condition not stated): 0.9; excitation wavelength maximum ([8]; without zinc): 515 nm; excitation wavelength maximum ([8]; zinc bound): 507 nm
O=C(O)c1ccccc1-c1c2cc(Cl)c(=O)cc-2oc2c(CNc3ccccc3CN(Cc3ccccn3)Cc3ccccn3)c(O)ccc12 [ZP4, 9-(o-carboxyphenyl)-2-chloro-5-[2-{bis(2-pyridylmethyl)aminomethyl}-N-methylaniline]-6-hydroxy-3-xanthanone]	–	–	–	–	–	–	–	–	about 0.34	about 0.06	pKa value ([8]; relative to Zinpyr 1 and Zinpyr 2): lower
NCCCNCCCCN(CCCN)/[N+]([O-])=N/O [spermine NONOate]	–	–	–	–	–	–	–	–	–	–	release of free zinc into dialysate [9]: vigorous release of free zinc
